Reference: ChEMBL document CHEMBL1201862, “PubChem BioAssay data set” (2004)
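Cultured in 96-well plates, cells were exposed to test compound for 48 hours across five concentrations. GI50: concentration for 50% inhibition of growth.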 Activity calls are given as the source filed them. No stated cut-off is given here; in the data, active = GI50 up to about 1.1 µM and inactive = higher.

Experiments:
Assay in all cases: NCI tumour cell line growth inhibition, 48 h
786-0 = system: 786-0
A549 = system: A549
ACHN = system: ACHN
COLO 205 = system: COLO 205
DU-145 = system: DU-145
EKVX = system: EKVX
HCT-116 = system: HCT-116
HCT-15 = system: HCT-15
HOP-62 = system: HOP-62
HOP-92 = system: HOP-92
HT-29 = system: HT-29
Hs-578T = system: Hs-578T
IGROV-1 = system: IGROV-1
LOX IMVI = system: LOX IMVI
M14 = system: M14
MDA-MB-231 = system: MDA-MB-231
MDA-N = system: MDA-N
MOLT-4 = system: MOLT-4
Malme-3M = system: Malme-3M
NCI-H460 = system: NCI-H460
NCI-H522 = system: NCI-H522
NCI/ADR-RES = system: NCI/ADR-RES
OVCAR-3 = system: OVCAR-3
OVCAR-4 = system: OVCAR-4
OVCAR-8 = system: OVCAR-8
PC-3 = system: PC-3
SF-268 = system: SF-268
SF-295 = system: SF-295
SK-MEL-2 = system: SK-MEL-2
SK-MEL-5 = system: SK-MEL-5
SK-OV-3 = system: SK-OV-3
SN12C = system: SN12C
SNB-75 = system: SNB-75
SR = system: SR
SW-620 = system: SW-620
T47D = system: T47D
UACC-257 = system: UACC-257
UACC-62 = system: UACC-62
A498 = system: A498
CAKI-1 = system: CAKI-1
CCRF-CEM = system: CCRF-CEM
HCC 2998 = system: HCC 2998
HL-60 = system: HL-60
K562 = system: K562
KM12 = system: KM12
MCF7 = system: MCF7
MDA-MB-435 = system: MDA-MB-435
NCI-H226 = system: NCI-H226
NCI-H23 = system: NCI-H23
OVCAR-5 = system: OVCAR-5
RPMI-8226 = system: RPMI-8226
RXF 393 = system: RXF 393
SF-539 = system: SF-539
SK-MEL-28 = system: SK-MEL-28
SNB-19 = system: SNB-19
TK-10 = system: TK-10
U-251 = system: U-251
UO-31 = system: UO-31

CN(Cc1cnc2nc(N)nc(N)c2n1)c1ccc(C(=O)NC(CCC(=O)NCC(P(=O)(O)O)P(=O)(O)O)C(=O)O)cc1 (stereo not given)
GI50 (786-0): 81.1 µM (inactive) | GI50 (A549): 4.99 µM (inactive) | GI50 (ACHN): 3.57 µM (inactive) | GI50 (COLO 205): > 100 µM (inactive) | GI50 (DU-145): 7.16 µM (inactive) | GI50 (EKVX): > 100 µM (inactive) | GI50 (HCT-116): 0.815 µM (active) | GI50 (HCT-15): 5.94 µM | GI50 (HOP-62): 5.11 µM (inactive) | GI50 (HOP-92): < 0.01 µM (active) | GI50 (HT-29): 5.27 µM (inactive) | GI50 (Hs-578T): 37.1 µM (inactive) | GI50 (IGROV-1): 9.04 µM (inactive) | GI50 (LOX IMVI): 2.52 µM (inactive) | GI50 (M14): 6.01 µM (inactive) | GI50 (MDA-MB-231): > 100 µM (inactive) | GI50 (MDA-N): 4.97 µM (inactive) | GI50 (MOLT-4): 3.18 µM (inactive) | GI50 (Malme-3M): > 100 µM (inactive) | GI50 (NCI-H460): 4.4 µM (inactive) | GI50 (NCI-H522): 20.2 µM (inactive) | GI50 (NCI/ADR-RES): 35.5 µM (inactive) | GI50 (OVCAR-3): 23 µM (inactive) | GI50 (OVCAR-4): 1.64 µM (inactive) | GI50 (OVCAR-8): 7.6 µM (inactive) | GI50 (PC-3): 0.436 µM (active) | GI50 (SF-268): 6.11 µM (inactive) | GI50 (SF-295): 0.706 µM (active) | GI50 (SK-MEL-2): > 100 µM (inactive) | GI50 (SK-MEL-5): 13.3 µM (inactive) | GI50 (SK-OV-3): 15.7 µM (inactive) | GI50 (SN12C): 7.21 µM (inactive) | GI50 (SNB-75): 57.3 µM (inactive) | GI50 (SR): < 0.01 µM (active) | GI50 (SW-620): 4.7 µM (inactive) | GI50 (T47D): 40 µM (inactive) | GI50 (UACC-257): 12.6 µM (inactive) | GI50 (UACC-62): 4.41 µM (inactive)

Cc1nc2c(C)ccc([N+](=O)[O-])c2c(NCCCN(C)C)c1C
GI50 (786-0): > 90.8 µM (inactive) | GI50 (A498): > 22.3 µM (inactive) | GI50 (A549): > 47.1 µM (inactive) | GI50 (ACHN): > 100 µM (inactive) | GI50 (CAKI-1): 66.4 µM (inactive) | GI50 (CCRF-CEM): 51.6 µM (inactive) | GI50 (COLO 205): 23.9 µM (inactive) | GI50 (DU-145): > 100 µM (inactive) | GI50 (EKVX): > 59.7 µM (inactive) | GI50 (HCC 2998): 27.4 µM (inactive) | GI50 (HCT-116): 74.6 µM (inactive) | GI50 (HCT-15): > 39.4 µM | GI50 (HL-60): 24.9 µM (inactive) | GI50 (HOP-62): > 43.9 µM (inactive) | GI50 (HOP-92): > 100 µM (inactive) | GI50 (HT-29): 24.7 µM (inactive) | GI50 (Hs-578T): 63 µM (inactive) | GI50 (IGROV-1): > 100 µM (inactive) | GI50 (K562): 32.3 µM (inactive) | GI50 (KM12): > 100 µM (inactive) | GI50 (LOX IMVI): 44.3 µM (inactive) | GI50 (M14): 19.5 µM (inactive) | GI50 (MCF7): 46.5 µM (inactive) | GI50 (MDA-MB-435): 39.2 µM (inactive) | GI50 (MDA-N): 33.1 µM (inactive) | GI50 (MOLT-4): 28.3 µM (inactive) | GI50 (Malme-3M): 29 µM (inactive) | GI50 (NCI-H226): 67.1 µM (inactive) | GI50 (NCI-H23): > 75.9 µM (inactive) | GI50 (NCI-H460): 57 µM (inactive) | GI50 (NCI-H522): 26.9 µM (inactive) | GI50 (NCI/ADR-RES): > 100 µM (inactive) | GI50 (OVCAR-3): 47.9 µM (inactive) | GI50 (OVCAR-4): > 100 µM (inactive) | GI50 (OVCAR-5): > 72.1 µM (inactive) | GI50 (OVCAR-8): > 46.6 µM (inactive) | GI50 (PC-3): 11.7 µM (inactive) | GI50 (RPMI-8226): 52.6 µM (inactive) | GI50 (RXF 393): 58.7 µM (inactive) | GI50 (SF-268): > 100 µM (inactive) | GI50 (SF-295): 38.4 µM (inactive) | GI50 (SF-539): > 76.9 µM (inactive) | GI50 (SK-MEL-28): 27.1 µM (inactive) | GI50 (SK-MEL-2): > 44.6 µM (inactive) | GI50 (SK-MEL-5): 14.2 µM (inactive) | GI50 (SK-OV-3): > 100 µM (inactive) | GI50 (SN12C): > 62.8 µM (inactive) | GI50 (SNB-19): > 100 µM (inactive) | GI50 (SNB-75): > 65.3 µM (inactive) | GI50 (SR): 38.3 µM (inactive) | GI50 (SW-620): > 38.5 µM (inactive) | GI50 (T47D): > 100 µM (inactive) | GI50 (TK-10): > 41.6 µM (inactive) | GI50 (U-251): > 57.8 µM (inactive) | GI50 (UACC-257): 23.3 µM (inactive) | GI50 (UACC-62): 37.2 µM (inactive) | GI50 (UO-31): > 100 µM (inactive)

Cn1c(=O)c2nc[nH]c2n(C)c1=O [THEOPHYLLINE]
GI50 (786-0): > 100 µM (inactive) | GI50 (A549): > 100 µM (inactive) | GI50 (ACHN): > 100 µM (inactive) | GI50 (CAKI-1): 22.9 µM (inactive) | GI50 (CCRF-CEM): > 100 µM (inactive) | GI50 (COLO 205): > 100 µM (inactive) | GI50 (DU-145): > 100 µM (inactive) | GI50 (EKVX): > 100 µM (inactive) | GI50 (HCC 2998): > 100 µM (inactive) | GI50 (HCT-116): > 100 µM (inactive) | GI50 (HCT-15): > 100 µM | GI50 (HL-60): > 100 µM (inactive) | GI50 (HOP-62): > 100 µM (inactive) | GI50 (HOP-92): > 100 µM (inactive) | GI50 (Hs-578T): > 100 µM (inactive) | GI50 (IGROV-1): > 100 µM (inactive) | GI50 (K562): > 100 µM (inactive) | GI50 (KM12): > 100 µM (inactive) | GI50 (LOX IMVI): > 100 µM (inactive) | GI50 (M14): > 100 µM (inactive) | GI50 (MCF7): > 100 µM (inactive) | GI50 (MDA-MB-231): > 100 µM (inactive) | GI50 (MDA-N): > 100 µM (inactive) | GI50 (MOLT-4): > 100 µM (inactive) | GI50 (Malme-3M): > 100 µM (inactive) | GI50 (NCI-H226): > 100 µM (inactive) | GI50 (NCI-H23): > 100 µM (inactive) | GI50 (NCI-H460): > 100 µM (inactive) | GI50 (NCI-H522): > 100 µM (inactive) | GI50 (NCI/ADR-RES): > 100 µM (inactive) | GI50 (OVCAR-3): > 100 µM (inactive) | GI50 (OVCAR-5): > 100 µM (inactive) | GI50 (OVCAR-8): > 100 µM (inactive) | GI50 (PC-3): > 100 µM (inactive) | GI50 (RPMI-8226): > 100 µM (inactive) | GI50 (SK-MEL-28): > 100 µM (inactive) | GI50 (SK-MEL-2): > 100 µM (inactive) | GI50 (SK-MEL-5): > 100 µM (inactive) | GI50 (SN12C): > 100 µM (inactive) | GI50 (SR): > 100 µM (inactive) | GI50 (SW-620): > 100 µM (inactive) | GI50 (T47D): > 100 µM (inactive) | GI50 (TK-10): > 100 µM (inactive) | GI50 (UACC-257): > 100 µM (inactive) | GI50 (UO-31): > 100 µM (inactive)
